The source of these data is article PMC3489664, “Sigma-1 Receptor Agonists Directly Inhibit NaV1.2/1.4 Channels” (PLoS ONE, 2012).

Assay type in all cases: cell-based
Test [1] addresses T1, NaV1.2 (Rattus norvegicus, UniProt P04775).
T1 construct: gene Scn2a; rat brain type IIA Na+ channel clone
The test can be described thus: whole-cell patch clamp in transfected HEK293T cells, […]. The note with it: HEK-293T.

In test [2] the target is T1, NaV1.2. The test can be described thus: whole-cell patch clamp in transfected HEK293T and COS-7 cells, […].
Test [3] addresses T2, NaV1.4 (Rattus norvegicus, UniProt P15390, Y1586A).
T2 construct: gene Scn4a; rat NaV1.4 (NM013178)
The test can be described thus: whole-cell patch clamp in transfected HEK293T cells, […]. The note with it: HEK-293T.

Test [4] concerns the target T1, NaV1.2. The test can be described thus: whole-cell patch clamp in transfected HEK293T cells.
For test [5], the target named is T3, NaV1.2 (Rattus norvegicus, UniProt P04775, Y1771A).
T3 construct: gene Scn2a; rat brain type IIA Na+ channel clone
T3 sequence (P04775 whole entry Y1771A): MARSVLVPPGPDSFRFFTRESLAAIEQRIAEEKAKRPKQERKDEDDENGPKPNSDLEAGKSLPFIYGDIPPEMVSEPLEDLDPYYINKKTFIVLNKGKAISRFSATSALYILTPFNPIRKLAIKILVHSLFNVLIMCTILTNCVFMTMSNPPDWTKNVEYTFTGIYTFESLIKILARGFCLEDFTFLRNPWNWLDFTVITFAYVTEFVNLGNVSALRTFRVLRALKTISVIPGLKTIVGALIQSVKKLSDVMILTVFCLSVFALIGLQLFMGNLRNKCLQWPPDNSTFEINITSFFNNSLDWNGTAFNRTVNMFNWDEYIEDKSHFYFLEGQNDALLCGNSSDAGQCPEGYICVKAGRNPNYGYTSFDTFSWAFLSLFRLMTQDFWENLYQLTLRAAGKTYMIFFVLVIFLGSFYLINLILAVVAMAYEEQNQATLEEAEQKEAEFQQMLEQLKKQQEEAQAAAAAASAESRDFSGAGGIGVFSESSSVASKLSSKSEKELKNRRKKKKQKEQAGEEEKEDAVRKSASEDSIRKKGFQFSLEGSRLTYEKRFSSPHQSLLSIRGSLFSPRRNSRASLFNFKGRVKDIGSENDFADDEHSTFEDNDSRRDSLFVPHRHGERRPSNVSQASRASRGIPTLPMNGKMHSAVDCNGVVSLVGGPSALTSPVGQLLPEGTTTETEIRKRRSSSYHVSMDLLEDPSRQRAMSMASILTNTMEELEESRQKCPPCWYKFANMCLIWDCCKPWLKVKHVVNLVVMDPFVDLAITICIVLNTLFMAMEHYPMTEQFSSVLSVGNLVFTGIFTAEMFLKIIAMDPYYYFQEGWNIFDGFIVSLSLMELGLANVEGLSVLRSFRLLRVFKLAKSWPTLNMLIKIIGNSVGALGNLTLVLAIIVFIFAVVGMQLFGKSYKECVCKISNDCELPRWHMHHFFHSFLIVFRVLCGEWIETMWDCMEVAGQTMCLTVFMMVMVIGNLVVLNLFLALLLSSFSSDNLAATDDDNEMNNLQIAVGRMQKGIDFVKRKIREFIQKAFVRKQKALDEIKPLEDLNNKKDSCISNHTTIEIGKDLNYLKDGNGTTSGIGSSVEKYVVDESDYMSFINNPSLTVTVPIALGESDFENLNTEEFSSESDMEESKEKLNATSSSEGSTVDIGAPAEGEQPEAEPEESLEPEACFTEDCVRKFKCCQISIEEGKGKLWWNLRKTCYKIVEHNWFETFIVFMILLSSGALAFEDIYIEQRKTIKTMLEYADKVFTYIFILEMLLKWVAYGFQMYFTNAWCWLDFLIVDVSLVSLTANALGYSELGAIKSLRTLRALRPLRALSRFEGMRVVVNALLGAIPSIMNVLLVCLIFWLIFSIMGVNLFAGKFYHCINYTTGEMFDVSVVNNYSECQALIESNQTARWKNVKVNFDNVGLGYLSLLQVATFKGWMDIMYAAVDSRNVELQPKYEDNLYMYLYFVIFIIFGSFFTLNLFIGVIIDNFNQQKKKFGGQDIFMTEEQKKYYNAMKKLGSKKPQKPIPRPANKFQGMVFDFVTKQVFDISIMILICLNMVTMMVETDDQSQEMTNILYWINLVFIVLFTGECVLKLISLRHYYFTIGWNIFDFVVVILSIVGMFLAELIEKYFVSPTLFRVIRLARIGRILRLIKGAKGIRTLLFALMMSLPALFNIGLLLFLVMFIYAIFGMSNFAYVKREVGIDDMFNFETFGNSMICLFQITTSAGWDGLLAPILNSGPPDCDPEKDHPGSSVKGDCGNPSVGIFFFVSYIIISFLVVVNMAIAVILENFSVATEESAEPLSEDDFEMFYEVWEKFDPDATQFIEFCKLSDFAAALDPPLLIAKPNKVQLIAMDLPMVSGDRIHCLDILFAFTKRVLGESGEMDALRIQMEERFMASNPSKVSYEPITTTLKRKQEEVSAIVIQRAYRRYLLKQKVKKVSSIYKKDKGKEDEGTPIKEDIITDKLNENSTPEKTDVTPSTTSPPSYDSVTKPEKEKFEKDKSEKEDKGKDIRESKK
Put plainly: whole-cell patch clamp in transfected HEK293T cells, […]. The following applies: HEK-293T.

Test [6] addresses T4, NaV1.2 (Rattus norvegicus, UniProt P04775, F1764A).
T4 construct: gene Scn2a; rat brain type IIA Na+ channel clone
The description is as above. The note with it: HEK-293T.

In test [7] the target is T5, NaV1.4 (Rattus norvegicus, UniProt P15390).
T5 construct: gene Scn4a; rat NaV1.4 (NM013178) in pEGFP-N1
T5 sequence (P15390 whole entry): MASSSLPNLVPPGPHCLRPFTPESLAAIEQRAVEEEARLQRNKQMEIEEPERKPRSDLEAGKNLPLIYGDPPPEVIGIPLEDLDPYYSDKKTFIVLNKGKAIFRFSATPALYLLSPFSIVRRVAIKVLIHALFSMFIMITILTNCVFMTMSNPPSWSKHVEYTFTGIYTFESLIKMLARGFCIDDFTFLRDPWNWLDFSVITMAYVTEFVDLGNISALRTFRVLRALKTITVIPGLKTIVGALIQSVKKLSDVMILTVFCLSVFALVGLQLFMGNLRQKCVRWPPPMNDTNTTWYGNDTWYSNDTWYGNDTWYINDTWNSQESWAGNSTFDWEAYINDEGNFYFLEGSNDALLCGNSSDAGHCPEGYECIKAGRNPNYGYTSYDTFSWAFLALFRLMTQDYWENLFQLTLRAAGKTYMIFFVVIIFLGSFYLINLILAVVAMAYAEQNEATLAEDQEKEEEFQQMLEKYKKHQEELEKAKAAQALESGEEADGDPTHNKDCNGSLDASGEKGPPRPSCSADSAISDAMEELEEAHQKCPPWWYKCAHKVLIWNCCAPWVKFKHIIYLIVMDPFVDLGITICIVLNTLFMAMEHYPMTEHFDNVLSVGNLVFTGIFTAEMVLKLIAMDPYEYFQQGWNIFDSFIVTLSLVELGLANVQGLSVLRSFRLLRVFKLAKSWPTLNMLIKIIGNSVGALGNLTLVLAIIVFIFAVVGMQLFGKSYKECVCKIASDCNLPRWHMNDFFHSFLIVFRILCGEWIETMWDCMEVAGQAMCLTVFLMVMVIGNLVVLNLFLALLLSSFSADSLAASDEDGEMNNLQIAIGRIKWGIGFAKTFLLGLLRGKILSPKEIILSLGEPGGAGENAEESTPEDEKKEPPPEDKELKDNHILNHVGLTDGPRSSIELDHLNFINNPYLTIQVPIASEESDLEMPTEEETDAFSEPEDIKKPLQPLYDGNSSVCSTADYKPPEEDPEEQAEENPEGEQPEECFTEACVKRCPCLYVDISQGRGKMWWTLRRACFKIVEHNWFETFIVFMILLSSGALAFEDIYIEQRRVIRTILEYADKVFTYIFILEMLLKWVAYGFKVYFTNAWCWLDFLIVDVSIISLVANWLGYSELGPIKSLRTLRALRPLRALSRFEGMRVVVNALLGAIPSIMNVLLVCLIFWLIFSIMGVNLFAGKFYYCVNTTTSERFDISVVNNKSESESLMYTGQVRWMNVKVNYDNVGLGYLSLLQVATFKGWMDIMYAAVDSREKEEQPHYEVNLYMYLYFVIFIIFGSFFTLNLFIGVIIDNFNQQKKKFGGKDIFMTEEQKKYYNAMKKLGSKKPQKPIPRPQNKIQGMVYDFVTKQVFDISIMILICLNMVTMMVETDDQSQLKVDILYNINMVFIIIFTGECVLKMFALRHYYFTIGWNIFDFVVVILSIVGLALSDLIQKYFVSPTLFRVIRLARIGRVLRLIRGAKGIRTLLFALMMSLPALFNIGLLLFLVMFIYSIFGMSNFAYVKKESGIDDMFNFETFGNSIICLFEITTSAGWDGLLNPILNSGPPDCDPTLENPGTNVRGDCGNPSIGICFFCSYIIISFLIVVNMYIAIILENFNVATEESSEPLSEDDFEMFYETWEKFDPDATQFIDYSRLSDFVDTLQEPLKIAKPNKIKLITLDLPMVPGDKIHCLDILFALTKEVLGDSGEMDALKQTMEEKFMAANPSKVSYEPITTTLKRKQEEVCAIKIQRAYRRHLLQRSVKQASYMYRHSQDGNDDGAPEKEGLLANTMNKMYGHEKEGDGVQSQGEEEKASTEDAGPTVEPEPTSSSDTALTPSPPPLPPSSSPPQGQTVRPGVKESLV
The test can be described thus: whole-cell patch clamp in transfected HEK293T and COS-7 cells, […].

Test [8] deals with T6, NaV1.4 (Rattus norvegicus, UniProt P15390, F1579A).
T6 construct: gene Scn4a; rat NaV1.4 (NM013178)
T6 sequence (P15390 whole entry F1579A): as the sequence (P15390 whole entry) above, with F1579A counted along it
Put plainly: whole-cell patch clamp in transfected HEK293T cells, […]. The following applies: HEK-293T.

T1 sequence (P04775 whole entry): as the sequence (P04775 whole entry Y1771A) above, with A1771Y counted along it
T2 sequence (P15390 whole entry Y1586A): as the sequence (P15390 whole entry) above, with Y1586A counted along it
T4 sequence (P04775 whole entry F1764A): as the sequence (P04775 whole entry Y1771A) above, with F1764A, A1771Y counted along it

In test [1], `Cc1ccccc1NC(=N)Nc1ccccc1C` [1,3-di-o-tolyl-guanidine] gave an inhibition at 100 µM of 69 ± 2.5%.

Take `COc1ccc2c(c1)[C@]13CCCC[C@@H]1[C@H](C2)N(C)CC3` [Dextromethorphan]: the inhibition at 100 µM in test [2] worked out at 65.8 ± 2%.

Take `C=CCN1CC[C@]2(C)c3cc(O)ccc3C[C@H]1[C@H]2C` [(+)-SKF 10047]: the inhibition at 100 µM in test [3] came to 49.3 ± 0.5%; in test [5] it was 45.2 ± 1.3%; in test [6] it was 25.9 ± 1.6%; in test [7], 51.5 ± 2.5%; in test [8], 23 ± 1.7%. In test [4], this molecule registered an IC50 of 140 µM.
